Assay results from paper PMC6099735, “Piplartine Analogues and Cytotoxic Evaluation against Glioblastoma” (Molecules : A Journal of Synthetic Chemistry and Natural …, 2018).
≈ marks a conversion by molar mass, not a printed value.

Tests used:
U87MG cells [1] = assay: MTT cell viability assay, cytotoxic activity against proliferation of U87MG cells; type: cell-based, human; settings: for IC50: Homo sapiens, U-87 MG, MTT assay, 48 h exposure, 0.78-50 μg/mL, mean ± SEM of four experiments
Description: To evaluate the cytotoxic potential of compounds 2–19 against human U87MG, glioblastoma cells were used with several concentrations (0 to 50 μg/mL). After 48 h of incubation, cell viability rates were established by MTT and LDH analysis. IC50 values of each analogue were determined due to observed cell viability results after MTT assay. All tested analogues led to inhibition of cellular proliferation rates as compared to untreated cells in a clear concentration and compound type dependent manners, as illustrated in Table 1 and Figure 2.
Human glioblastoma (GBM) cell line U87MG (American Type Culture Collection; Rockville, MD, USA) within passage number 15–20 were grown in an incubator at 37 °C in a humidified atmosphere of 5% CO2. They were grown in Eagle’s Minimal Essential Medium from Sigma-Aldrich (Saint Louis, MO, USA), supplemented with 10% fetal bovine serum (FBS) and 100 μg/mL of each of the following antibiotics: penicillin and streptomycin [66].
To examine the effects of compounds on cell viability, an MTT assay was performed. U87MG cells were seeded at 1 × 10^4 cells per well in 96-well plate and allowed to attach for 24 h. Then the cells were exposed to different concentrations of 2–19 (0.78, 1.56, 3.125, 6.25, 12.5, 25 and 50 μg/mL) for 48 h. All the compounds were dissolved in dimethyl sulfoxide (DMSO), and diluted in serum-free culture medium. After the incubation, a 3-(4,5-dimethylthiazol-2-yl)-2,5-diphenyltetrazolium bromide (MTT) solution was applied to cell cultures according to the manufacturer’s instructions (Cayman Chemical Company®, Ann Arbor, MI, USA). After 3 h of incubation, MTT-formazan crystals were dissolved in DMSO and absorbance was measured at 570 nm on a plate reader and compared with control, untreated cells. The half-maximal inhibitory concentration values (IC50) were determined by MTT assay performed in four replicates.

U87MG cells [2] = assay: Apoptosis detection by Hoechst 33,258 staining; type: cell-based, human; settings: 48 h at IC50 concentration, compared with control group
Description: Cell apoptosis induced by compound 10 was examined by Hoechst 33,258 staining and observed under a fluorescence microscope at 400× magnification.
The control and formulation treated cells were incubated for 48 h and were cultured in six-well cell culture plates for 48 h. after incubation, the medium was removed and the cells were fixed with 4% paraformaldehyde in phosphate buffered saline at 4 °C for 30 min. Following the washing cells three times with phosphate-buffered saline (PBS). The cells were then stained with 1 μL Hoechst 33,258 (5 μg/mL; Sigma-Aldrich, Saint Louis, MO, USA) and incubated at room temperature in the dark for 5 min. Changes in nuclear morphology were visualized under a fluorescent microscope (excitation, 350 nm; emission, 460 nm; Leica® DM IL LED, Wetzlar, Germany).

U87MG cells [3] = assay: qRT-PCR gene expression, custom plate with 15 cancer pathway genes; type: cell-based, human; settings: IC50 concentration, 48 h
Description: To find out the differences in the level of gene expression in U87MG cells exposed using compound 10, a custom plate with 15 different genes involved in cancer related pathways was used via qRT-PCR studies.
Total RNA was isolated from cultured cells using PureLink® RNA Mini Kit (Invitrogen, Carlsbad, MA, USA) following the instructions described by the manufacturer. For quantitative reverse-transcription polymerase chain reaction (qRT-PCR), RNA was reverse-transcribed to cDNA by using a High-Capacity cDNA Reverse Transcription kit (Applied Biosystems, Foster City, CA, USA) according to the manufacturer’s protocol. Real-time PCR analyses were performed using the resulting total cDNA on a TaqMan® custom plate (Applied Biosystems) designed with 15 different genes (EGFR, AKT1, AKT2, NFκB1, NFκB1A, NFκB2, PTEN, KRAS, PIK3CA, PIK3R1, TP53, RAF1, BRAF, DVL1, FOS). Results were normalized to the expression of 18SRNA. qRT-PCR and data collection were performed on 7500 Fast Real-Time PCR (Applied Biosystems). Data analyses were performed using the The Applied Biosystems 7500 Fast System SDS software (Foster City, CA, USA).

[4] = system: peripheral human whole blood (PHWB) cells; assay: Biosafety: MTT cytotoxicity on cultured blood cells; type: cell-based; settings: 0.78 to 50 μg/mL
Description: (§1) To evaluate biosafety of 10, its cytotoxic and genotoxic potential were investigated on cultured peripheral human whole blood (PHWB) cells. Firstly, the cytotoxicity testing was performed by MTT and LDH assays. The human blood cells exposed to 0.78 to 50 μg/mL of 10. […] Afterwards, genotoxic potential was assessed by SCE testing and determination of 8-OH-dG.
(§2) Human peripheral blood cells were cultured in order to evaluate the biosafety of 10. To assess the cytotoxicity and genotoxicity potential of 10, MTT, LDH, Sister chromatid exchange (SCE) and 8-hydroxy-2′-deoxyguanosine assays were assessed on cultured blood cells.

[5] = system: peripheral human whole blood (PHWB) cells; assay: Biosafety: LDH cytotoxicity on cultured blood cells; type: cell-based; settings: 0.78 to 50 μg/mL
Description: as §1, §2

[6] = system: peripheral human whole blood (PHWB) cells; assay: Sister chromatid exchange (SCE) testing; type: cell-based; settings: 72 h, vs control group
Description: as §1
Peripheral blood samples were incubated with 10 (50 μg/mL) at 37 °C for 72 h in culture medium (PB-MAX Karyotyping Medium, Gibco®, Baecelona, Spain) with 5.0 mg/mL of phytohemagglutinin (Sigma Aldrich, Steinheim, Germany). 5-Bromodeoxyuridine (BrdU) (10 μg/mL) was added to cell cultures at initiation. At 1.5 h before harvesting, colcemid (0.5 μg/mL) were added to cells. Then cells were treated with a hypotonic solution (0.075 M KCl), followed by three times fixation step in methanol/acetic acid (3:1, v/v). Cell suspensions were dropped on slides and air-dried. Three days later, the slides were stained according to the fluorescence plus Giemsa (FPG) procedure. Slides were observed under a fluorescence microscope and scores were calculated as SCEs per cell.

U87MG cells [7] = assay: Total antioxidant capacity (TAC) assay; type: cell-based, human; settings: 48 h, concentrations 0.78 and 50 μg/mL, compared with controls
Description: (§3) The total antioxidant capacity (TAC) and the total oxidant status (TOS) levels were evaluated in samples from treated and untreated cultures using colorimetric measurement methods.
(§4) The commercially available kits were purchased from (Rel Assay Diagnostics®, Gaziantep, Turkey) to estimate the level of TAS and TOS. As a summary, the cells were seeded at 10^6 cells/well in 48-well plates, treated with compound 10 as described above. After 48 h incubation, plasma samples of treated and untreated cultures were transferred to a new plate, mixed with reaction solution and incubate for 10 min at room temperature. After that, the absorbance was read spectrophotometrically and the level of TAS and TOS were calculated according to the given equation.

U87MG cells [8] = assay: Total oxidant status (TOS) assay; type: cell-based, human; settings: 48 h, all the concentrations
Description: as §3, §4

[9] = system: BF16F10-Nex2 (murine melanoma); design: method as in PMID 25920262; settings: MTT test; cited from earlier work
[10] = system: HeLa (human cervical carcinoma); design: method as in PMID 25920262; settings: MTT test; cited from earlier work
[11] = system: HL-60 (human leukemic cell); design: method as in PMID 25920262; settings: MTT test; cited from earlier work
[12] = significant = >0.5 fold change vs untreated

Molecule	IC50 (U87MG cells [1]) [µg/mL]	melting point [°C]	further results
COC(=O)/C=C/c1cc(OC)c(OC)c(OC)c1 [Compound 2, (E)-Methyl-3-(3,4,5-trimethoxyphenyl)acrylate]	85.13 ± 0.78 (≈ 337 µM)	135 to 136	
CCOC(=O)/C=C/c1cc(OC)c(OC)c(OC)c1 [Compound 3, (E)-Ethyl-3-(3,4,5-trimethoxyphenyl)acrylate]	100 ± 1.12 (≈ 376 µM)		
CCCOC(=O)/C=C/c1cc(OC)c(OC)c(OC)c1 [Compound 4, (E)-Propyl-3-(3,4,5-trimethoxyphenyl)acrylate]	78.39 ± 0.69 (≈ 280 µM)		
CCCCOC(=O)/C=C/c1cc(OC)c(OC)c(OC)c1 [Compound 5, (E)-Butyl-3-(3,4,5-trimethoxyphenyl)acrylate]	57.9 ± 0.71 (≈ 197 µM)	74 to 75	
CCCCCOC(=O)/C=C/c1cc(OC)c(OC)c(OC)c1 [Compound 6, (E)-Pentyl 3-(3,4,5-trimethoxyphenyl)acrylate]	31.7 ± 0.48 (≈ 103 µM)	105 to 106	
CCCCCCCCCCOC(=O)/C=C/c1cc(OC)c(OC)c(OC)c1 [Compound 7, (E)-Decyl-3-(3,4,5-trimethoxyphenyl)acrylate]	34.9 ± 0.54 (≈ 92.3 µM)	37 to 38	
COCCOC(=O)/C=C/c1cc(OC)c(OC)c(OC)c1 [Compound 8, (E)-2-Methoxyethyl-3-(3,4,5-trimethoxyphenyl)acrylate]	50.1 ± 0.62 (≈ 169 µM)	60 to 62	
COc1cc(/C=C/C(=O)OC(C)C)cc(OC)c1OC [Compound 9, (E)-Isopropyl 3-(3,4,5-Trimethoxyphenyl)acrylate]	81.43 ± 0.55 (≈ 291 µM)		
COc1cc(/C=C/C(=O)OC(c2ccccc2)c2ccccc2)cc(OC)c1OC [Compound 10, (E)-Benzhydryl 3-(3,4,5-trimethoxyphenyl)acrylate]	2.58 ± 0.35 (≈ 6.38 µM)		cell viability / cellular proliferation rates (U87MG cells [1]; 0 to 50 μg/mL, 48 h, MTT and LDH analysis, compared to untreated cells): marked concentration-dependent inhibitory effect; apoptosis (nuclear morphology, Hoechst 33,258 staining) (U87MG cells [2]): enhanced chromatin condensation and nuclear fragmentation were detected; gene expression of BRAF, DVL1, EGFR, FOS, KRAS, NF-ĸB1A, RAF1, PIK3CA and PIK3R1 (U87MG cells [3]; <0.5 fold change): slight and insignificant alterations; AKT1 gene expression (U87MG cells [3]; [12]): down-regulated; AKT2 gene expression (U87MG cells [3]; [12]): down-regulated; NF-ĸB1 gene expression (U87MG cells [3]; vs untreated): up-regulated; NF-ĸB2 gene expression (U87MG cells [3]; vs untreated): up-regulated; PTEN gene expression (U87MG cells [3]; vs untreated): up-regulated; TP53 gene expression (U87MG cells [3]; vs untreated): up-regulated; cytotoxicity on blood cells, cell proliferation (MTT assay) [4]: did not lead to any significant (p > 0.05) changes in cell proliferation; cytotoxicity on blood cells, cell proliferation (LDH assay) [5]: did not lead to any significant (p > 0.05) changes in cell proliferation; genotoxicity, frequencies of SCEs [6]: not significant differences in the frequencies of SCEs; total antioxidant capacity (TAC) levels (U87MG cells [7]): significant increase of TAC levels; total oxidant status (TOS) levels (U87MG cells [8]): did not change the TOS levels
COc1cc(/C=C/C(=O)Oc2cc(C(C)C)ccc2C)cc(OC)c1OC [Compound 11, (E)-Carvacryl-3-(3,4,5-trimethoxyphenyl)acrylate]	26.7 ± 0.47 (≈ 72.1 µM)	145 to 146	
COc1cc(/C=C/C(=O)OCCc2ccccc2)cc(OC)c1OC [Compound 12, (E)-Phenethyl 3-(3,4,5-trimethoxyphenyl)acrylate]	24.8 ± 0.37 (≈ 72.4 µM)		
COc1cc(/C=C/C(=O)OCCc2ccc(C)cc2)cc(OC)c1OC [Compound 13, (E)-4-Methylphenethyl 3-(3,4,5-Trimethoxyphenyl)acrylate]	30.3 ± 0.35 (≈ 85.1 µM)		
CCCCNC(=O)/C=C/c1cc(OC)c(OC)c(OC)c1 [Compound 14, (E)-N-Butyl-3-(3,4,5-trimethoxyphenyl)acrylamide]	13.2 ± 0.32 (≈ 45 µM)	225 to 226	
COc1cc(/C=C/C(=O)NCc2ccccc2)cc(OC)c1OC [Compound 15, (E)-N-Benzyl-3-(3,4,5-trimethoxyphenyl)acrylamide]	33.1 ± 0.41 (≈ 101 µM)		
COc1cc(/C=C/C(=O)NCc2ccc(C)cc2)cc(OC)c1OC [Compound 16, (E)-N-(4-Methylbenzyl)-3-(3,4,5-trimethoxyphenyl)acrylamide]	22.7 ± 0.34 (≈ 66.6 µM)	203 to 205	
COc1ccc(CNC(=O)/C=C/c2cc(OC)c(OC)c(OC)c2)cc1 [Compound 17, (E)-N-(4-Methoxybenzyl)-3-(3,4,5-trimethoxyphenyl)acrylamide]	22.7 ± 0.39 (≈ 63.4 µM)	225 to 226	
COc1cc(/C=C/C(=O)NCc2ccc(Cl)cc2)cc(OC)c1OC [Compound 18, (E)-N-(4-Chlorobenzyl)-3-(3,4,5-trimethoxyphenyl)acrylamide]	43.4 ± 0.48 (≈ 120 µM)	215 to 218	
CCN(CC)C(=O)/C=C/c1cc(OC)c(OC)c(OC)c1 [Compound 19, (E)-N,N-Diethyl-3-(3,4,5-trimethoxyphenyl)acrylamide]	36.1 ± 0.44 (≈ 123 µM)	197 to 198	
CC(=O)O[C@H]1C(=O)[C@@]2(C)[C@H]([C@H](OC(=O)c3ccccc3)[C@]3(O)C[C@H](OC(=O)[C@H](O)[C@@H](NC(=O)c4ccccc4)c4ccccc4)C(C)=C1C3(C)C)[C@]1(OC(C)=O)CO[C@@H]1C[C@@H]2O [paclitaxel, reference compound]	2.12 (≈ 2.48 µM)		
piplaroxide			cytotoxic activity [9]: moderate activity; cytotoxic activity [10]: moderate activity; cytotoxic activity [11]: moderate activity
